Values quoted from earlier work as cited in patent US9301985B2, “Therapeutic agent for dementia” (Kibun Foods Inc., priority 2013, dated 2016).

Columns and labels:
[1] = tested on: cerebrovascular dementia model and Alzheimer's disease model; settings: rat; cerebrovascular dementia model (vessel artificially clogged) and Alzheimer's disease model
[2] = tested on: nerve growth factor (NGF); settings: erinacine E derived from Hericium erinaceum
[3] = molecular target: k-opioid receptor (Homo sapiens, UniProt P41145); settings: erinacine E derived from Hericium ramosum
k-opioid receptor, sequence (P41145 whole entry): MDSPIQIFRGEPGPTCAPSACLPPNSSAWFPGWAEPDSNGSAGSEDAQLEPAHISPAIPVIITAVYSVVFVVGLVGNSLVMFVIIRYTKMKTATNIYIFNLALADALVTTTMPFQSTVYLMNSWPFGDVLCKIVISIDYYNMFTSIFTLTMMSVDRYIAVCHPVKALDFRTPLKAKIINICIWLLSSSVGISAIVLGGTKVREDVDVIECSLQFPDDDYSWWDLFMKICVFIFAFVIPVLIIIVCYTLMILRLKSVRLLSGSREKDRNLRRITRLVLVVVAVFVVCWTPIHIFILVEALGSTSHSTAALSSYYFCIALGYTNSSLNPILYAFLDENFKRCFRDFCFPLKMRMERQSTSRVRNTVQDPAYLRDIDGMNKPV

activity at k-opioid receptor [3]	SMILES	memory retention and learning ability [1]	nerve growth factor (NGF) production [2]
–	CC(C)C1=C2C3=CC=C(C=O)C[C@H](O[C@@H]4OC[C@@H](O)[C@H](O)[C@H]4O)[C@]3(C)CC[C@@]2(C)CC1 [erinacine A]	apparent improvement	–
–	CCCCCCCCCCCCCCCC(=O)OCc1cc(OC)c(C/C=C(\C)CC(=O)C=C(C)C)c(O)c1C=O [hericenone C]	apparent improvement	–
agonist	CC(C)C1=C2C3CC=C4C(O)C5(O)COC6OC(C4C6(O)C5O)C3(C)CCC2(C)CC1 (stereo not shown) [erinacine E]	–	action to accelerate
